According to ChEMBL document CHEMBL6083262, “Stereorandomized Oncocins with Preserved Ribosome Binding and Antibacterial Activity” (J Med Chem, 2024):
≈ marks a conversion by molar mass, not a printed value. Calls of active or inactive are those of the source. The rule behind the calls is not given here. Non-standard residues stand in square brackets, D forms with d. Residues, ends and D or L forms follow the SMILES beside them. ξ: configuration not given here. ξY = NC(Cc1ccc(O)cc1)C(=O)O; ξR = N=C(N)NCCCC(N)C(=O)O; ξN = NC(=O)CC(N)C(=O)O; ξI = CCC(C)C(N)C(=O)O

What was measured:
Staphylococcus aureus [1] = assay: Antimicrobial activity against methicillin-resistant Staphylococcus aureus COL incubated for 16 to 20 hrs in 12.5 % muller hinton medium by broth microdilution method; format: functional; details: time 16-20 hrs
Lipid bilayer [2] = assay: Induction of membrane disruption in egg yolk phosphatidyl choline at 10 ug/ml by measuring vesicle leakage; details: dose 10.0 µg/ml
Klebsiella pneumoniae [3] = assay: Antimicrobial activity against Klebsiella pneumoniae NCTC 418 incubated for 16 to 20 hrs in 12.5 % muller hinton medium by broth microdilution method; format: functional; details: time 16-20 hrs
Pseudomonas aeruginosa [4] = assay: Antimicrobial activity against Pseudomonas aeruginosa PAO1 incubated for 16 to 20 hrs in full muller hinton medium by broth microdilution method; format: functional; details: time 16-20 hrs
[5] = Hemolytic activity in human RBC incubated for 4 hrs; format: toxicity, cell-based; details: erythrocyte
Klebsiella pneumoniae [6] = assay: Antibacterial activity against multidrug-resistant Klebsiella pneumoniae clinical isolate OXA-48 incubated for 16 to 20 hrs in 12.5 % muller hinton medium by broth microdilution method; format: functional; details: time 16-20 hrs
Pseudomonas aeruginosa [7] = assay: Antibacterial activity against multidrug-resistant Pseudomonas aeruginosa PA14 2P4 harboring pmrB mutant incubated for 16 to 20 hrs in full muller hinton medium by broth microdilution method; format: functional; details: time 16-20 hrs
Klebsiella pneumoniae [8] = assay: Antibacterial activity against multidrug-resistant Klebsiella pneumoniae clinical isolate OXA-48 incubated for 16 to 20 hrs in full muller hinton medium by broth microdilution method; format: functional; details: time 16-20 hrs
Pseudomonas aeruginosa [9] = assay: Antibacterial activity against multidrug-resistant Pseudomonas aeruginosa PA14 4.18 harboring pmrB mutant incubated for 16 to 20 hrs in full muller hinton medium by broth microdilution method; format: functional; details: time 16-20 hrs
Pseudomonas aeruginosa [10] = assay: Antibacterial activity against multidrug-resistant Pseudomonas aeruginosa PA14 4.13 harboring phoQ mutant incubated for 16 to 20 hrs in full muller hinton medium by broth microdilution method; format: functional; details: time 16-20 hrs
Bacteria = assay: Binding affinity to his-tagged DnaK (unknown origin) expressed in Escherichia coli BL21 (DE3) in dilute muller hinton medium by microscale thermophoresis analysis
Klebsiella pneumoniae [11] = assay: Antimicrobial activity against Klebsiella pneumoniae NCTC 418 incubated for 16 to 20 hrs in full muller hinton medium by broth microdilution method; format: functional; details: time 16-20 hrs
Lipid bilayer [12] = assay: Induction of membrane disruption in egg yolk phosphatidyl glycerol at 10 ug/ml by measuring vesicle leakage; details: dose 10.0 µg/ml
Staphylococcus aureus [13] = assay: Antimicrobial activity against methicillin-resistant Staphylococcus aureus COL incubated for 16 to 20 hrs in full muller hinton medium by broth microdilution method; format: functional; details: time 16-20 hrs
rRNA = assay: Binding affinity to [gamma32 P-ATP] labeled Escherichia coli MG1655 23S ribosomal RNA (5-CCCTTGGGACCTACTTC-3') at U2506 position assessed as increase in band intensity at 1 uM incubated for 2.5 hrs in full muller hinton medium by CMCT based gel electrophoresis; format: nucleic-acid assay
Pseudomonas aeruginosa [14] = assay: Antibacterial activity against multidrug-resistant Pseudomonas aeruginosa PA14 incubated for 16 to 20 hrs in full muller hinton medium by broth microdilution method; format: functional; details: time 16-20 hrs
Pseudomonas aeruginosa [15] = assay: Antibacterial activity against multidrug-resistant Pseudomonas aeruginosa clinical isolate ZEM-1A incubated for 16 to 20 hrs in full muller hinton medium by broth microdilution method; format: functional; details: time 16-20 hrs
Enterobacter cloacae [16] = assay: Antibacterial activity against multidrug-resistant Enterobacter cloacae incubated for 16 to 20 hrs in full muller hinton medium by broth microdilution method; format: functional; details: time 16-20 hrs
Pseudomonas aeruginosa [17] = assay: Antibacterial activity against multidrug-resistant Pseudomonas aeruginosa clinical isolate ZEM9A incubated for 16 to 20 hrs in full muller hinton medium by broth microdilution method; format: functional; details: time 16-20 hrs
Klebsiella pneumoniae [18] = assay: Bacteriostatic activity against Klebsiella pneumoniae assessed as detachment of inner membrane from outer membrane by measuring a large void at 8 times MIC in full muller hinton medium by transmission electron microscopic analysis; format: functional, organism-based
Pseudomonas aeruginosa [19] = assay: Antimicrobial activity against Pseudomonas aeruginosa PAO1 incubated for 16 to 20 hrs in 12.5 % muller hinton medium by broth microdilution method; format: functional; details: time 16-20 hrs
Enterobacter cloacae [20] = assay: Antibacterial activity against multidrug-resistant Enterobacter cloacae incubated for 16 to 20 hrs in 12.5 % muller hinton medium by broth microdilution method; format: functional; details: time 16-20 hrs
Escherichia coli [21] = assay: Bacteriostatic activity against Escherichia coli assessed as small intracellular vesicles at 8 times MIC in full muller hinton medium by transmission electron microscopic analysis; format: functional, organism-based
Escherichia coli [22] = assay: Bacteriostatic activity against Escherichia coli assessed as detachment of inner membrane from outer membrane by measuring a large void at 8 times MIC in full muller hinton medium by transmission electron microscopic analysis; format: functional, organism-based
Escherichia coli [23] = assay: Antimicrobial activity against Escherichia coli W3110 incubated for 16 to 20 hrs in full muller hinton medium by broth microdilution method; format: functional; details: time 16-20 hrs
Escherichia coli [24] = assay: Bacteriostatic activity against Escherichia coli assessed as membrane perturbation at 8 times MIC in full muller hinton medium by transmission electron microscopic analysis; format: functional, organism-based
Klebsiella pneumoniae [25] = assay: Bacteriostatic activity against Klebsiella pneumoniae assessed as membrane perturbation at 8 times MIC in full muller hinton medium by transmission electron microscopic analysis; format: functional, organism-based
Escherichia coli [26] = assay: Bacteriostatic activity against Escherichia coli at 8 times MIC in full muller hinton medium by Time-kill assay; format: functional, organism-based
Klebsiella pneumoniae [27] = assay: Bacteriostatic activity against Klebsiella pneumoniae assessed as small intracellular vesicles at 8 times MIC in full muller hinton medium by transmission electron microscopic analysis; format: functional, organism-based
Klebsiella pneumoniae [28] = assay: Bacteriostatic activity against Klebsiella pneumoniae at 8 times MIC in full muller hinton medium by Time-kill assay; format: functional, organism-based

In the case of CCC(C)C(NC(=O)C(CCCNC(=N)N)NC(=O)C(CCCNC(=N)N)NC(=O)C1CCCN1C(=O)C1CCCN1C(=O)C(CCCNC(=N)N)NC(=O)C1CCCN1C(=O)C(CCCNC(=N)N)NC(=O)C1CCCN1C(=O)C(CC(C)C)NC(=O)C(Cc1ccc(O)cc1)NC(=O)C1CCCN1C(=O)C1CCCN1C(=O)C(CCCCN)NC(=O)C(CC(=O)O)NC(=O)C(N)C(C)C)C(=O)NC(Cc1ccc(O)cc1)C(=O)NC(CC(N)=O)C(=O)NC(CCCNC(=N)N)C(N)=O (centres undefined) (H-VDKPPYLPRPRPPRRIYNR-NH2; configuration not given here), the MIC (Staphylococcus aureus [1]) was greater than 64 µg/mL, the Activity (Lipid bilayer [2]) was “Active” and the MIC (Klebsiella pneumoniae [3]) was greater than 16 µg/mL. It also gave an MIC (Pseudomonas aeruginosa [4]) greater than 64 µg/mL, an MHC [5] greater than 1000 µg/mL and an MIC (Klebsiella pneumoniae [6]) greater than 64 µg/mL. The MIC (Pseudomonas aeruginosa [7]) was greater than 64 µg/mL, the MIC (Klebsiella pneumoniae [8]) was greater than 64 µg/mL and the MIC (Pseudomonas aeruginosa [9]) was greater than 64 µg/mL. For the same compound, the MIC (Pseudomonas aeruginosa [10]) was greater than 64 µg/mL, the Activity (Bacteria) was “inactive” and the MIC (Klebsiella pneumoniae [11]) was greater than 64 µg/mL. For the same compound, the Activity (Lipid bilayer [12]) was “Active”, the MIC (Staphylococcus aureus [13]) was greater than 64 µg/mL and the Activity (rRNA) was “inactive”. It also gave an MIC (Pseudomonas aeruginosa [14]) greater than 64 µg/mL, an MIC (Pseudomonas aeruginosa [15]) greater than 64 µg/mL and an MIC (Enterobacter cloacae [16]) greater than 64 µg/mL. For the same compound, the MIC (Pseudomonas aeruginosa [17]) was greater than 64 µg/mL.

With CCC(C)C(NC(=O)C(CCCNC(=N)N)NC(=O)[C@H](CCCNC(=N)N)NC(=O)[C@@H]1CCCN1C(=O)[C@@H]1CCCN1C(=O)[C@H](CCCNC(=N)N)NC(=O)[C@@H]1CCCN1C(=O)[C@H](CCCNC(=N)N)NC(=O)[C@@H]1CCCN1C(=O)[C@H](CC(C)C)NC(=O)[C@H](Cc1ccc(O)cc1)NC(=O)[C@@H]1CCCN1C(=O)[C@@H]1CCCN1C(=O)[C@H](CCCCN)NC(=O)[C@H](CC(=O)O)NC(=O)[C@@H](N)C(C)C)C(=O)NC(Cc1ccc(O)cc1)C(=O)NC(CC(N)=O)C(=O)NC(CCCNC(=N)N)C(N)=O (some centres undefined) (H-VDKPPYLPRPRPPR[ξR][ξI][ξY][ξN][ξR]-NH2) the MIC (Staphylococcus aureus [1]) was greater than 16 µg/mL, the Activity (Lipid bilayer [2]) was “Active” and the Activity (Klebsiella pneumoniae [18]) was “Active”. The MIC (Pseudomonas aeruginosa [19]) was 8 µg/mL (≈ 3.35 µM), the MIC (Enterobacter cloacae [20]) was 1 µg/mL (≈ 0.418 µM) and the Activity (Escherichia coli [21]) was “Active”. The MHC [5] was greater than 1000 µg/mL, the MIC (Pseudomonas aeruginosa [7]) was greater than 64 µg/mL and the Activity (Escherichia coli [22]) was “Active”. For the same compound, the Activity (Lipid bilayer [12]) was “Active”, the MIC (Staphylococcus aureus [13]) was greater than 64 µg/mL and the MIC (Escherichia coli [23]) was 4 µg/mL (≈ 1.67 µM). The Activity (rRNA) was “Active”, the MIC (Pseudomonas aeruginosa [14]) was greater than 64 µg/mL and the Activity (Escherichia coli [24]) was “Active; Few Membrane Perturbation Observed”. The Activity (Klebsiella pneumoniae [25]) was “Active; Few Membrane Perturbation Observed”, the Activity (Escherichia coli [26]) was “Active” and the Activity (Klebsiella pneumoniae [27]) was “Active”. The MIC (Pseudomonas aeruginosa [17]) was greater than 64 µg/mL and the Activity (Klebsiella pneumoniae [28]) was “Active”.
